Experimental data as given in paper PMC3724770 (ACS combinatorial science, 2012).

Target: T1, fms-like receptor tyrosine kinase-3 (FLT3) (Homo sapiens, UniProt P36888)
T1 sequence (P36888 27-993): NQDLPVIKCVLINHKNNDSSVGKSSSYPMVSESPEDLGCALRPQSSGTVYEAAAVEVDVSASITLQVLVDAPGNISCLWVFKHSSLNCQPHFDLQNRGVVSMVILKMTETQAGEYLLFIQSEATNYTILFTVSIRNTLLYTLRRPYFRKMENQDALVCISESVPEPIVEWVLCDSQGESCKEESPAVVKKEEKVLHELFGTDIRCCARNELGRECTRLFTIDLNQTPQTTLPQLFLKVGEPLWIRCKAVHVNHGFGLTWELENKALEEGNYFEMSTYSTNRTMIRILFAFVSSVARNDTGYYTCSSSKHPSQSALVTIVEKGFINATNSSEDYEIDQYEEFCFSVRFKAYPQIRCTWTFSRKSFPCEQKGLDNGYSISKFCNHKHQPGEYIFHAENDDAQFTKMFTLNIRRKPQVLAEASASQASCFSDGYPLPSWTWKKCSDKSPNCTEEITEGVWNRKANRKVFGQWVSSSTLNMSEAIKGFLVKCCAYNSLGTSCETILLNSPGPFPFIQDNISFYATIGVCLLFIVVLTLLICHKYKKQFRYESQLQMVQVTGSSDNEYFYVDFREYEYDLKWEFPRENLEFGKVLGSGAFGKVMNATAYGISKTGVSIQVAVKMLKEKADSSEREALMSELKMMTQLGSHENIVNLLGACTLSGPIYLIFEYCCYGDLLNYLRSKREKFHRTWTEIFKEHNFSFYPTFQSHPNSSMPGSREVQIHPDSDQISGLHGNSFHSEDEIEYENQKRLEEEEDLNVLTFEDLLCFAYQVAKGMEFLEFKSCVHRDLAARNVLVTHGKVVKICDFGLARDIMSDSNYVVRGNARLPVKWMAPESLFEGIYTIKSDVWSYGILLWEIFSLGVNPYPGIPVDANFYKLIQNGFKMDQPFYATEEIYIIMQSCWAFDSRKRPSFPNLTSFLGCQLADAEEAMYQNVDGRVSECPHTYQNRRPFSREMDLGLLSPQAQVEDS
Type: biochemical

IC50: 1920 nM
Compound: CCCCNc1ncnc2c(N3CCNCC3)c[nH]c12 [compound 9, N-butyl-7-(piperazin-1-yl)-5H-pyrrolo[3,2-d]pyrimidin-4-amine]
